From US11999727B2 (Tango Therapeutics, Inc., priority 2020, dated 2024) come the findings set out here.

Bounds are passed on as bounds.

Assay [1] addresses T1, PRMT5 (Homo sapiens, UniProt O14744).
T1 construct: purchased Viva (custom protein)
Description: PRMT5 biochemical IC50 assay with no cofactor. The conditions noted are these: PRMT5, no cofactor; read-out: No Cofactor/ rel IC50. An excerpt:
Table 1 indicates IC50 values (μM) against PRMT5 for exemplary compounds in the presence of SAM as cofactor, with no cofactor, and with MTA as cofactor, respectively (columns 4-6). […] Ki values can be calculated from the IC50 values as described in the Examples section. As detailed in the Examples section, for the assay performed in the presence of SAM, IC50=Ki×1.5 (Ki=IC50/1.5).

Assay [2] concerns HAP1 MTAP-deleted cell line. The assay is described as follows: SDMA in-cell western assay, HAP1 MTAP-deleted. Format: cell-based. The conditions noted are these: for IC50: Homo sapiens, HAP1, SDMA in-cell western, HAP1 MTAP-deleted, read-out: HAP 1 MTAP deleted IC50; for MTAP intact/deleted ratio: IC50 ratio HAP1 MTAP-intact / HAP1 MTAP-deleted, SDMA in-cell western. The method, boiled down: (§1)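 Isogenic HAP1 pair: the MTAP-intact line expresses endogenous MTAP, and the deleted line is MTAP-null. Symmetric dimethylarginine was detected by in-cell western and IC50 values derived for each line.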

For assay [3], the target named is T1, PRMT5. Description: PRMT5 biochemical IC50 assay with MTA as cofactor. The conditions noted are these: PRMT5, MTA as cofactor; read-out: MTA IC50.
Assay [4] addresses T1, PRMT5. The assay is described as follows: PRMT5 biochemical IC50 assay with SAM as cofactor. The conditions noted are these: PRMT5, SAM as cofactor; read-out: SAM IC50.
The test system of assay [5] is HAP1 MTAP-intact cell line. The assay is described as follows: SDMA in-cell western assay, HAP1 MTAP-intact. The conditions noted are these: Homo sapiens, HAP1, SDMA in-cell western, HAP1 MTAP-intact; read-out: MTAP HAP1 intact IC50. It is filed as cell-based. The method, boiled down:
as §1

Assay [6] concerns HAP1 MTAP-deleted cell line. Description: Viability assay, MTAP-deleted cell line. It is filed as cell-based. The conditions noted are these: Homo sapiens, HAP1, viability assay, MTAP-deleted cell line; read-out: HAP1 MTAP deleted viability. The source says: Table 1 additionally indicates IC50 values in a viability assay for the MTAP-deleted cell line (column 10), indicating the effect of treatment with compound on cell survival.

T1 sequence (O14744 whole entry): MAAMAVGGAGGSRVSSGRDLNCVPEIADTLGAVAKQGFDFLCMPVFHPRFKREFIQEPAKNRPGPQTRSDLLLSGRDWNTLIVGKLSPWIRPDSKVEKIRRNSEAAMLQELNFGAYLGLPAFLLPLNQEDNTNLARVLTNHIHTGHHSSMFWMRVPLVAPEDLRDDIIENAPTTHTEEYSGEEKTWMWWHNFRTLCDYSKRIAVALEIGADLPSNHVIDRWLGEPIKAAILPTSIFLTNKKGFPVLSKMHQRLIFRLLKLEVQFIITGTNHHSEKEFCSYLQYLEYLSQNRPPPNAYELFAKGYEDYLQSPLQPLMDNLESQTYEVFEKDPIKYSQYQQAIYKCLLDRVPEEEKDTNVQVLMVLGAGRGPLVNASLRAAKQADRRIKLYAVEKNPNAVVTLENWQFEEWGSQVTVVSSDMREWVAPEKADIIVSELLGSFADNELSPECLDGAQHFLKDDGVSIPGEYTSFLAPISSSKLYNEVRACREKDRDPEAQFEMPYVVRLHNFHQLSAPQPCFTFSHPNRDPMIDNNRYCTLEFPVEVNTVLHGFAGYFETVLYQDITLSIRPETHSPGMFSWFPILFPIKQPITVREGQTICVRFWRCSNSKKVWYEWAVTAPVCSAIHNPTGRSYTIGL
T1 sequence (Q9BQA1 whole entry partner): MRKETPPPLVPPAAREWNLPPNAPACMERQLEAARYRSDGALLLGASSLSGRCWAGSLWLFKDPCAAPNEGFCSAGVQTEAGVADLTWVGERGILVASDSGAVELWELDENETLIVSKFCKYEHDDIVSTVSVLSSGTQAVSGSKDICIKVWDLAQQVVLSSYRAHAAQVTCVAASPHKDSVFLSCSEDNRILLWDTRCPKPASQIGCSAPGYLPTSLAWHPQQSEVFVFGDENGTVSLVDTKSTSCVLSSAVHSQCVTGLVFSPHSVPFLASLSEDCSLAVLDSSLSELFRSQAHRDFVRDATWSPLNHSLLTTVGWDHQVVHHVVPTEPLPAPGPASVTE

For `Cc1cncc(NC(=O)C(=O)N2C[C@H](C)CC[C@H]2c2cccc(Cl)c2)c1` (racemic) [Compound 13, 2-[(2R,5S)-2-(3-chlorophenyl)-5-methyl-1-piperidyl]-N-(5-methyl-3-pyridyl)-2-oxo-acetamide], the IC50 on PRMT5 [1] is more than 500 nM; in assay [2], more than 1000 nM; on PRMT5 [3], 50 to 500 nM; at PRMT5 [4] it was more than 500 nM; in assay [5], more than 1000 nM; in assay [6], more than 10000 nM. The “MTAP intact/deleted ratio” value in assay [2] is “C (an IC50 ratio of less than 3 fold)”.

Consider `Cc1cncc(NC(=O)C(=O)N2C[C@H](C)CC[C@H]2c2ccnc(C)c2)c1` (racemic) [Compound 14, 2-[(2S,5R)-5-methyl-2-(2-methyl-4-pyridyl)-1-piperidyl]-N-(5-methyl-3-pyridyl)-2-oxo-acetamide], for which the IC50 at PRMT5 [1] is more than 500 nM; in assay [2], more than 1000 nM; at PRMT5 [3] it was 50 to 500 nM; at PRMT5 [4] it was 50 to 500 nM; in assay [5], more than 1000 nM; in assay [6], more than 10000 nM. Further, the “MTAP intact/deleted ratio” value in assay [2] was “C (an IC50 ratio of less than 3 fold)”.

For `COc1cccc([C@@H]2CC[C@@H](C)CN2C(=O)C(=O)Nc2cncc(C)c2)c1` (racemic) [Compound 28, rac-2-((2R,5S)-2-(3-methoxyphenyl)-5-methylpiperidin-1-yl)-N-(5-methylpyridin-3-yl)-2-oxoacetamide], the IC50 at PRMT5 [1] was 50 to 500 nM; in assay [2], more than 1000 nM; on PRMT5 [3], 50 to 500 nM; on PRMT5 [4], 50 to 500 nM; in assay [5], more than 1000 nM; in assay [6], more than 10000 nM. Besides, in assay [2], the “MTAP intact/deleted ratio” value is given as “C (an IC50 ratio of less than 3 fold)”.

As for `Cc1cccc(C2CCCCN2C(=O)C(=O)Nc2cnc(N)c(C)c2)c1` (racemic) [Compound 31, N-(6-Amino-5-methyl-3-pyridyl)-2-[2-(m-tolyl)-1-piperidyl]-2-oxo-acetamide], the IC50 at PRMT5 [1] was 50 to 500 nM; in assay [2], 100 to 1000 nM; on PRMT5 [3], less than 50 nM; at PRMT5 [4], 50 to 500 nM; in assay [5], more than 1000 nM; in assay [6], more than 10000 nM. For the same compound, the “MTAP intact/deleted ratio” value in assay [2] is “A (an IC50 ratio greater than or equal to 10 fold)”.

With `Cc1cc(NC(=O)C(=O)N2CCCCC2c2ccncc2)cnc1N` (racemic) [Compound 36, N-(6-Amino-5-methyl-3-pyridyl)-2-oxo-2-[2-(4-pyridyl)-1-piperidyl]acetamide], the IC50 at PRMT5 [1] is 50 to 500 nM; in assay [2], 100 to 1000 nM; on PRMT5 [3], less than 50 nM; at PRMT5 [4], 50 to 500 nM; in assay [5], more than 1000 nM; in assay [6], more than 10000 nM. Also, the “MTAP intact/deleted ratio” value in assay [2] is “A (an IC50 ratio greater than or equal to 10 fold)”.

Take `CNC(=O)c1cccc([C@H]2CC[C@H](C)CN2C(=O)C(=O)Nc2cncc(C)c2)c1` (racemic) [Compound 48, N-methyl-3-[(2R,5S)-5-methyl-1-[2-[(5-methyl-3-pyridyl)amino]-2-oxo-acetyl]-2-piperidyl]benzamide]: the IC50 on PRMT5 [1] is 50 to 500 nM; in assay [2] it was more than 1000 nM; at PRMT5 [3], 50 to 500 nM; at PRMT5 [4], 50 to 500 nM; in assay [5] it was more than 1000 nM; in assay [6], more than 10000 nM. Further, in assay [2], the “MTAP intact/deleted ratio” value was “C (an IC50 ratio of less than 3 fold)”.

Consider `Cc1cc(NC(=O)C(=O)N2CCCCC2c2ccccc2)cnc1N` (racemic) [Compound 53, N-(6-Amino-5-methyl-3-pyridyl)-2-oxo-2-(2-phenyl-1-piperidyl)acetamide], for which the IC50 on PRMT5 [1] is 50 to 500 nM; in assay [2], 100 to 1000 nM; at PRMT5 [3], less than 50 nM; at PRMT5 [4] it was 50 to 500 nM; in assay [5] it was more than 1000 nM; in assay [6], more than 10000 nM. In assay [2], the “MTAP intact/deleted ratio” value is “A (an IC50 ratio greater than or equal to 10 fold)”.

In the case of `Cc1cc(NC(=O)C(=O)N2CC(C)(C)CCC2c2ccccc2)cnc1N` (racemic) [Compound 56, N-(6-amino-5-methylpyridin-3-yl)-2-(5,5-dimethyl-2-phenylpiperidin-1-yl)-2-oxoacetamide], the IC50 at PRMT5 [1] was 50 to 500 nM; in assay [2], less than 100 nM; on PRMT5 [3], 50 to 500 nM; on PRMT5 [4] it was 50 to 500 nM; in assay [5], 100 to 1000 nM; in assay [6], 1000 to 10000 nM. Also, the “MTAP intact/deleted ratio” value in assay [2] was “B (an IC50 ratio greater than or equal to 3 fold but lower than 10 fold)”.

Take `Cc1cncc(NC(=O)C(=O)N2C[C@@H](C)CC[C@@H]2c2cccs2)c1` (racemic) [Compound 60, rac-2-((2R,5S)-5-methyl-2-(thiophen-2-yl)piperidin-1-yl)-N-(5-methylpyridin-3-yl)-2-oxoacetamide]: the IC50 is more than 500 nM on PRMT5 [1]; more than 1000 nM in assay [2]; 50 to 500 nM at PRMT5 [3]; more than 500 nM on PRMT5 [4]; more than 1000 nM in assay [5]; more than 10000 nM in assay [6]. In addition, the “MTAP intact/deleted ratio” value in assay [2] was “C (an IC50 ratio of less than 3 fold)”.

As to `Cc1cc(NC(=O)C(=O)N2C[C@H](C)CC[C@@H]2c2ccnn2C)cnc1N` (racemic) [Compound 66, rac-N-(6-amino-5-methylpyridin-3-yl)-2-((2R,5R)-5-methyl-2-(1-methyl-1H-pyrazol-5-yl)piperidin-1-yl)-2-oxoacetamide], the IC50 at PRMT5 [1] is 50 to 500 nM; in assay [2], 100 to 1000 nM; on PRMT5 [3] it was less than 50 nM; at PRMT5 [4], 50 to 500 nM; in assay [5] it was more than 1000 nM; in assay [6], more than 10000 nM. In addition, in assay [2], the “MTAP intact/deleted ratio” value is listed as “A (an IC50 ratio greater than or equal to 10 fold)”.

Turning to `Cc1cncc(NC(=O)C(=O)N2C[C@H](C)CC[C@H]2c2cccc(F)c2)c1` (racemic) [Compound 70, rac-2-[(2S,5R)-2-(3-fluorophenyl)-5-methyl-1-piperidyl]-N-(5-methyl-3-pyridyl)-2-oxo-acetamide], the IC50 is more than 500 nM at PRMT5 [1]; more than 1000 nM in assay [2]; 50 to 500 nM at PRMT5 [3]; more than 500 nM on PRMT5 [4]; more than 1000 nM in assay [5]; more than 10000 nM in assay [6]. Further, the “MTAP intact/deleted ratio” value in assay [2] is recorded as “C (an IC50 ratio of less than 3 fold)”.

As to `C[C@@H]1CC[C@H](c2ccnn2C)N(C(=O)C(=O)Nc2cncc(C(N)=O)c2)C1` (racemic) [Compound 72, 5-(2-(5-methyl-2-(1-methyl-1H-pyrazol-5-yl)piperidin-1-yl)-2-oxoacetamido)nicotinamide], the IC50 on PRMT5 [1] is 50 to 500 nM; in assay [2], 100 to 1000 nM; at PRMT5 [3], 50 to 500 nM; on PRMT5 [4], 50 to 500 nM; in assay [5], more than 1000 nM; in assay [6] it was more than 10000 nM. Besides, in assay [2], the “MTAP intact/deleted ratio” value was “A (an IC50 ratio greater than or equal to 10 fold)”.

For `NC(=O)c1cncc(NC(=O)C(=O)N2C[C@@H]3CC[C@@H](C3)[C@@H]2c2cccs2)c1` (racemic) [Compound 79, 5-[[2-oxo-2-[(1S,4S,5R)-4-(2-thienyl)-3-azabicyclo[3.2.1]octan-3-yl]acetyl]amino]pyridine-3-carboxamide], the IC50 on PRMT5 [1] is more than 500 nM; in assay [2] it was 100 to 1000 nM; on PRMT5 [3], 50 to 500 nM; on PRMT5 [4], 50 to 500 nM; in assay [5], more than 1000 nM; in assay [6], more than 10000 nM. Further, in assay [2], the “MTAP intact/deleted ratio” value is “A (an IC50 ratio greater than or equal to 10 fold)”.

In the case of `Cc1cncc(NC(=O)C(=O)N2C[C@H](C)CC[C@H]2c2ccc3c(c2)CCCC3)c1` (racemic) [Compound 80, N-(5-methyl-3-pyridyl)-2-[(2S,5R)-5-methyl-2-tetralin-6-yl-1-piperidyl]-2-oxo-acetamide], the IC50 on PRMT5 [1] was more than 500 nM; in assay [2] it was more than 1000 nM; at PRMT5 [3] it was 50 to 500 nM; at PRMT5 [4], more than 500 nM; in assay [5] it was more than 1000 nM; in assay [6] it was more than 10000 nM. In addition, the “MTAP intact/deleted ratio” value in assay [2] is “C (an IC50 ratio of less than 3 fold)”.

As for `C[C@@H]1CC[C@@H](c2ccnn2C)N(C(=O)C(=O)Nc2cncc(C(N)=O)c2)C1` (racemic) [Compound 81, 5-(2-(5-methyl-2-(1-methyl-1H-pyrazol-5-yl)piperidin-1-yl)-2-oxoacetamido)nicotinamide], the IC50 is more than 500 nM on PRMT5 [1]; 100 to 1000 nM in assay [2]; 50 to 500 nM on PRMT5 [3]; more than 500 nM on PRMT5 [4]; more than 1000 nM in assay [5]; more than 10000 nM in assay [6]. Also, the “MTAP intact/deleted ratio” value in assay [2] is given as “A (an IC50 ratio greater than or equal to 10 fold)”.
